Data: patent US11447504B2, “Macrocyclic chlorine substituted indole derivatives” (Bayer Aktiengesellschaft, priority 2017, dated 2022)
Counter-ions that a name gives are not always drawn. Like-named read-outs stand apart in the source and are kept apart here.

Key:
[1] = tested on: SUDHL5; assay: Induction of caspase-3/7 activity (Assay 4), SUDHL5; assay type: cell-based; details: SUDHL5 cells
Protocol: (§1) Induction of Caspase-3/7 Activity Upon Treatment of Cells with Selected Compounds
The BH3-domain of MCL-1 sequesters pro-apoptotic proteins, thereby inhibiting apoptosis. In contrast, MCL-1 inhibitors are expected to antagonize this effect leading to an increase in apoptosis, which can be determined by measuring the activity of caspase-3/7.
(§2) The activity of caspase-3/7 was determined in DLBCL (Diffuse large B-cell lymphoma) cell lines (SUDHL5 and SUDHL10) upon treatment with different compounds, using the Caspase-Glo®3/7 reagent from Promega (G8092).
(§3) Rim wells were excluded. The cells were incubated for 3 hours in a humidified incubator at 37° C.
(§4) For the evaluation of the results, the background measured with “medium-only” was subtracted from all other values.

[2] = tested on: SUDHL10; assay: Induction of cytotoxicity (Assay 6), SUDHL10
Protocol: Assay 6 Induction of Cytotoxicity Upon Treatment of Cells with Selected Compounds
Therefore, cytotoxicity assays were run in parallel in SUDHL5 and SUDHL10 cells.
The different cell lines were plated in culture medium (RPMI 1640 [GIBCO #22400-089]supplemented with 10% Fetal Bovine Serum) at a density of 3,300 cells in 30 μL/well in a sterile, solid black, flat bottom, polystyrene, TC-treated 384-well microplate (Corning #3571) using Multidrop Combi Reagent Dispenser. As a control, medium without cells was also added to the plate. Cells were incubated in a humidified incubator at 37° C. overnight. […] Rim wells were excluded. The cells were incubated for 5 hours in a humidified incubator at 37° C. After this incubation, 30 μL of CellTiter-Glo® Luminescent Cell Viability reagent (Promega, G7573) was added to each well using the Multidrop Combi Reagent Dispenser, followed by 15 minutes incubation on a shaker at room temperature. Finally, luminescence was read at 0.1 ms, with a gain of 3000 using the PHERAstar FS microplate reader (BMG Labtech).

[3] = tested on: SUDHL5; assay: Antiproliferation assay 7, SUDHL5; assay type: cell-based; details: SUDHL5 cells, CellTiter-Glo, read-out: Antiproli SUDHL5 IC50 (median)
Protocol: (§5) Assessment of the Anti-Proliferative Effect of Compounds in Different Cell Lines
(§6) The impact of compounds on the proliferation of different cell lines was assessed using the CellTiter-Glo® Luminescent Cell Viability reagent from Promega (G7573).
(§7) In parallel, cells were plated in a reference (day 0) plate for time zero determination.
(§8) Rim wells were excluded. The cells were incubated for 72 hours in a humidified incubator at 37° C. The day 0 plate was measured by adding 30 μL/well of CTG solution (CellTiter-Glo® Luminescent Cell Viability reagent, Promega G7573) to time zero wells in the reference plate followed by a 10 minutes incubation and luminescence reading at 0.1 ms. using the PHERAstar FS microplate reader (BMG Labtech).
(§9) After 72 hours incubation, the treated plates were measured in the same way as the day 0 plate mentioned above.

[4] = tested on: AMO-1; assay: Antiproliferation assay 7, AMO-1; assay type: cell-based; details: AMO-1 cells, CellTiter-Glo, read-out: Antiproli AMO-1 IC50 median
Protocol: as §5, §6, §7, §8, §9

[5] = tested on: SUDHL10; assay: Induction of caspase-3/7 activity (Assay 4), SUDHL10; assay type: cell-based; details: SUDHL10 cells
Protocol: as §1
In contrast, MCL-1 inhibitors are expected to antagonize this effect leading to an increase in apoptosis, which can be determined by measuring the activity of caspase-3/7.
as §2, §3, §4

[6] = tested on: SUDHL5; assay: Induction of cytotoxicity (Assay 6), SUDHL5
[7] = tested on: HMC-1-8; assay: Antiproliferation assay 7, HMC-1-8; assay type: cell-based; details: HMC-1-8 cells, CellTiter-Glo, read-out: Antiproli HMC-1-8 IC50 median
Protocol: as §5, §6, §7, §8, §9

[8] = Homo sapiens, SU-DHL-5, 3 h, Caspase-Glo 3/7, read-out: Caspase SUDHL5 EC50 (median)
[9] = Homo sapiens, SU-DHL10, 5 h, read-out: Cytotox SUDHL10 IC50 (median), SUDHL10 cells, 5 hours, CellTiter-Glo
[10] = Homo sapiens, SU-DHL10, 3 h, Caspase-Glo 3/7, read-out: Caspase SUDHL10 EC50 (median)
[11] = Homo sapiens, SU-DHL-5, 5 h, read-out: Cytotox SUDHL5 IC50 (median), SUDHL5 cells, 5 hours, CellTiter-Glo
[12] = 3 hours, Caspase-Glo 3/7, read-out: Caspase SUDHL5 EC50 (median)
[13] = read-out: Cytotox SUDHL10 IC50 (median), SUDHL10 cells, 5 hours, CellTiter-Glo
[14] = 3 hours, Caspase-Glo 3/7, read-out: Caspase SUDHL10 EC50 (median)
[15] = read-out: Cytotox SUDHL5 IC50 (median), SUDHL5 cells, 5 hours, CellTiter-Glo

SMILES	EC50 [1, 8] [nM]	IC50 ([3]; Homo sapiens, SU-DHL-5, 72 h) [nM]	EC50 [5, 10] [nM]	EC50 [1, 12] [nM]	IC50 ([3]; 72 hours) [nM]	EC50 [5, 14] [nM]	IC50 [2, 9] [nM]	IC50 ([4]; Homo sapiens, AMO1, 72 h) [nM]	IC50 [6, 11] [nM]	IC50 ([7]; 72 h) [nM]	IC50 [2, 13] [nM]	IC50 ([4]; 72 hours) [nM]	IC50 [6, 15] [nM]	IC50 ([7]; 72 hours) [nM]
CCc1c2c(nn1C)CCCCCCn1c(C(=O)O)c(CCCOc3cccc4cc(F)ccc34)c3ccc(Cl)c-2c31 (racemic) [Example 54, (rac)-4-chloro-3-ethyl-7-{3-[(6-fluoronaphthalen-1-yl)oxy]propyl}-2-methyl-10,11,12,13,14,15-hexahydro-2H-pyrazolo[4′,3′:4,5]azacycloundecino[3,2,1-hi]indole-8-carboxylic Acid]	600	430	520				740	1350	670	2210				
Cc1c2c(nn1C)CN(CC(F)(F)F)CCCCn1c(C(=O)O)c(CCCOc3cccc4cc(F)ccc34)c3ccc(Cl)c-2c31 (racemic) [Example 58, (rac)-4-chloro-7-{3-[(6-fluoronaphthalen-1-yl)oxy]propyl}-2,3-dimethyl-14-(2,2,2-trifluoroethyl)-10,11,12,13,14,15-hexahydro-2H-pyrazolo[3′,4′:8,9][1,6]diazacycloundecino[10,11,1-hi]indole-8-carboxylic Acid]	330	250	440				530	683	340	1720				
CCc1c2c(nn1C)CCCCCCn1c(C(=O)O)c(CCCOc3cccc4ccccc34)c3ccc(Cl)c-2c31 (single isomer, unassigned; enantiomer 1) [Example 52, (+)-4-chloro-3-ethyl-2-methyl-7-{3-[(naphthalen-1-yl)oxy]propyl}-10,11,12,13,14,15-hexahydro-2H-pyrazolo[4′,3′:4,5]azacycloundecino[3,2,1-hi]indole-8-carboxylic acid-N-ethylethanamine Salt—Enantiomer 1]				370								1440	320	5250
Cc1c2c(nn1C)COCC(F)(F)CCn1c(C(=O)O)c(CCCOc3cccc4ccccc34)c3ccc(Cl)c-2c31 (single isomer, unassigned; enantiomer 1) [Example 56, 4-chloro-12,12-difluoro-2,3-dimethyl-7-{3-[(naphthalen-1-yl)oxy]propyl}-2,10,11,12,13,15-hexahydropyrazolo[4′,3′:9,10][1,6]oxazacycloundecino[8,7,6-hi]indole-8-carboxylic acid-N-ethylethanamine Salt—Enantiomer 1]				690	1100	1800				8270	1600	1770	590	
Cc1c2c(nn1C)CN(CC(F)(F)F)CCCCn1c(C(=O)O)c(CCCOc3cccc4cc(F)ccc34)c3ccc(Cl)c-2c31 (single isomer, unassigned; enantiomer 1) [Example 59, 4-chloro-7-{3-[(6-fluoronaphthalen-1-yl)oxy]propyl}-2,3-dimethyl-14-(2,2,2-trifluoroethyl)-10,11,12,13,14,15-hexahydro-2H-pyrazolo[3′,4′:8,9][1,6]diazacycloundecino[10,11,1-hi]indole-8-carboxylic Acid—Enantiomer 1]				240	340	490					550	216	310	1120
CCc1c2c(nn1C)CCCCCCn1c(C(=O)O)c(CCCOc3cccc4ccccc34)c3ccc(Cl)c-2c31 (single isomer, unassigned; enantiomer 2) [Example 53, (−) 4-chloro-3-ethyl-2-methyl-7-{3-[(naphthalen-1-yl)oxy]propyl}-10,11,12,13,14,15-hexahydro-2H-pyrazolo[4′,3′:4,5]azacycloundecino[3,2,1-hi]indole-8-carboxylic acid-N-ethylethanamine Salt—Enantiomer 2]				3500								11200	2500	16800
Cc1c2c(nn1C)COCC(F)(F)CCn1c(C(=O)O)c(CCCOc3cccc4ccccc34)c3ccc(Cl)c-2c31 (single isomer, unassigned; enantiomer 2) [Example 57, 4-chloro-12,12-difluoro-2,3-dimethyl-7-{3-[(naphthalen-1-yl)oxy]propyl}-2,10,11,12,13,15-hexahydropyrazolo[4′,3′:9,10][1,6]oxazacycloundecino[8,7,6-hi]indole-8-carboxylic acid-N-ethylethanamine Salt—Enantiomer 2]				7600	3900	13000					10000	11800	6900	8680

More lines, main results first:

EC50 [1, 8] [nM]	IC50 ([3]; Homo sapiens, SU-DHL-5, 72 h) [nM]	EC50 [5, 10] [nM]	EC50 [1, 12] [nM]	IC50 ([3]; 72 hours) [nM]	EC50 [5, 14] [nM]	SMILES	IC50 [2, 9] [nM]	IC50 ([4]; Homo sapiens, AMO1, 72 h) [nM]	IC50 [6, 11] [nM]	IC50 ([7]; 72 h) [nM]	IC50 [2, 13] [nM]	IC50 ([4]; 72 hours) [nM]	IC50 [6, 15] [nM]	IC50 ([7]; 72 hours) [nM]
			610	380	980	Cc1c2c(nn1C)OCCCCCn1c(C(=O)O)c(CCCOc3cccc4cc(F)ccc34)c3ccc(Cl)c-2c31 (racemic) [Example 83, (rac)-4-chloro-7-{3-[(6-fluoronaphthalen-1-yl)oxy]propyl}-2,3-dimethyl-11,12,13,14-tetrahydro-2H,10H-pyrazolo[3′,4′:2,3][1,6]oxazacycloundecino[4,5,6-hi]indole-8-carboxylic Acid]					1100	730	660	7900
			220	320	170	CCc1c2c(nn1C)N(CCC1CCOCC1)CCCCCn1c(C(=O)O)c(CCCOc3cccc4cc(F)ccc34)c3ccc(Cl)c-2c31 (single isomer, unassigned; enantiomer 1) [Example 81, 4-chloro-3-ethyl-7-{3-[(6-fluoronaphthalen-1-yl)oxy]propyl}-2-methyl-15-[2-(oxan-4-yl)ethyl]-10,11,12,13,14,15-hexahydro-2H-pyrazolo[4′,3′:4,5][1,6]diazacycloundecino[3,2,1-hi]indole-8-carboxylic acid N-ethylethanamine Salt—Enantiomer 1]		120		1900	230		290	
			9000	20000	27000	Cc1c2c(nn1C)CN(CC(F)(F)F)CCCCn1c(C(=O)O)c(CCCOc3cccc4cc(F)ccc34)c3ccc(Cl)c-2c31 (single isomer, unassigned; enantiomer 2) [Example 60, 4-chloro-7-{3-[(6-fluoronaphthalen-1-yl)oxy]propyl}-2,3-dimethyl-14-(2,2,2-trifluoroethyl)-10,11,12,13,14,15-hexahydro-2H-pyrazolo[3′,4′:8,9][1,6]diazacycloundecino[10,11,1-hi]indole-8-carboxylic Acid—Enantiomer 2]					26000	25500	12000	> 30000
			9700	13000	25000	Cc1c2c(nn1C)OCCCCCn1c(C(=O)O)c(CCCOc3cccc4cc(F)ccc34)c3ccc(Cl)c-2c31 (single isomer, unassigned; enantiomer 2) [Example 85, 4-chloro-7-{3-[(6-fluoronaphthalen-1-yl)oxy]propyl}-2,3-dimethyl-11,12,13,14-tetrahydro-2H,10H-pyrazolo[3′,4′:2,3][1,6]oxazacycloundecino[4,5,6-hi]indole-8-carboxylic Acid—Enantiomer 2]					25000	6100	17000	> 30000
1400	2600				3100	Cc1c2c(nn1C)COCC1CCC1Cn1c(C(=O)O)c(CCCOc3cccc4ccccc34)c3ccc(Cl)c-2c31 (single isomer, unassigned; stereoisomer 1) [Example 63]			1500	7850	3300	2560		
